{
  "source": "paper PMC8225959",
  "about": "“Clickable Radiocomplexes With Trivalent Radiometals for Cancer Theranostics: In vitro and in vivo Studies” (Frontiers in Medicine, 2021)",
  "key": {"[1]": {"assay": "In vivo stability: HPLC analysis of urine of injected mice", "conditions": "mouse urine, 1 h p.i.", "quoted_text": "To assess the in vivo stability of the radiocomplexes, samples of blood and urine were collected from the mice injected with the compounds and analyzed by HPLC.\nBlood samples from mice injected with the tested radiocomplexes, collected at sacrifice time, were\ncentrifuged, the serum separated and treated with ethanol (1:2 proportion) to precipitate the proteins\nand the supernatant was analyzed by HPLC for stability evaluation. The urine samples were centrifuged\nat 3000 rpm for 10 min and the supernatant was also analyzed by HPLC."}, "PC3 xenografts": {"test_system": "PC3 xenografts", "assay": "In vivo click (pre-targeting) biodistribution of [111In]In-DOTA-Tz in PC3-xenografts bearing mice pretargeted with TCO-PEG4-AR", "parameters": "Biodistribution: Blood: dose or concentration left out as unconfirmed", "conditions": "1 h p.i.", "description": "from whole animal body. Blood samples were taken by cardiac puncture at sacrifice. Tissue samples\nBiodistribution in PC3 bearing mice\nMembrane Matrix (BD Sciences) under anaesthesia with 2% isoflurane. The animals were kept under\nvolume of approximate 390 ± 190 mm3. Animals were allocated into treatment groups using a complete\ncarried out on groups of 8 mice (n = 4).\nAt appropriate time points (15 min,\nImmediately after injection,\nDOTA-Tz (0.1mL, 50 – 75 µCi µCi).\nassumed to be due to total excretion. The animals were weighed and dissected. Then, tissues of interest\nradioactivity and weighted."}, "[2]": {"assay": "In vitro stability of [111In]In-radiocomplexes in cell culture media, human serum and PBS at 37 °C (HPLC)", "assay_type": "in vitro ADME", "description": "(§1) Given the limited effect of the pegylated linker on the plasmatic half-life, we focused our successive in vitro stability studies and lipophilicity measurements on the two non-pegylated derivatives [^111In]In-DOTA-Tz and [^111In]In-DOTAGA-Tz. The lipophilicity was evaluated by determination of their partition coefficient log Po/w using the shake-flask method. […] In HS the stability was very good up to 2 h of incubation, but after 4 h of incubation, the degradation started to be quite important with 50 and 30% of the compound degraded for [^111In]In-DOTA-Tz and [^111In]In-DOTAGA-Tz, respectively. […] Taken together, excellent stability of the two [^111In]In-radiocomplexes was observed both in CCM and HS at 37°C for incubation times up to 2 h.\n[111In]In-Radiocomplexes: In vitro and in vivo stability\nradiolabelled compound dissolved in different media. For the evaluation of the stability in PBS, Cell\ntimes the volume of the desired medium.\nThe radiocomplexes incubated in Human\nThe urine samples were centrifuged\nduring six days by ITLC analysis."}, "[3]": {"assay": "Lipophilicity, octanol-water partition coefficient by shake-flask method", "assay_type": "physicochemical", "conditions": "1-octanol / PBS pH 7.4", "description": "as §1, with “h. […]” for “h.”\nLipophilicity Determination\nAfter phase separation, aliquots"}, "[4]": {"assay": "Biodistribution of [111In]In-radiocomplexes in healthy mice", "assay_type": "in vivo", "description": "We performed a biodistribution study of the four [^111In]In-radiocomplexes in healthy mice to determine the clearance rate from systemic blood circulation and the tissue/organ distribution over time. […] The urinary tract was identified as the main excretory pathway since the highest % I.D./g values were found in the kidneys for all the radiocomplexes, associated to rapid radioactivity excretion both at 15 min and 1 h p.i. […] page 9: from whole animal body. Blood samples were taken by cardiac puncture at sacrifice. […] The animals were kept under […] volume of approximate 390 ± 190 mm3. […] […] carried out on groups of 8 mice (n = 4). […] The animals were weighed and dissected."}, "[5]": {"conditions": "In Vivo Click reaction: PC3 xenograft mice pretargeted with TCO-PEG4-AR (4 h prior administration, 1 nM)"}, "[6]": {"conditions": "In Vivo Click reaction: PC3 xenograft mice pretargeted with TCO-PEG4-AR (4 h prior administration, 1 nM), listed as [^111In]In-DOTA-Tz"}, "[7]": {"conditions": "in vivo click chemistry, pretargeted with TCO-PEG4-AR"}},
  "data": [
    {"compound": "O=C([O-])CN1CCN(CC(=O)[O-])CCN(CC(=O)NCc2ccc(-c3nncnn3)cc2)CCN(CC(=O)[O-])CC1.[111In+3]", "note": "[[111In]In-DOTA-Tz]", "values": [
      {"measurement": "in vivo stability / metabolization (urine HPLC)", "setting": "[1]", "result": "eliminated without undergoing any metabolization or degradation"},
      {"measurement": "Biodistribution: Blood", "setting": "PC3 xenografts; In Vivo Click reaction: PC3 xenograft mice pretargeted with TCO-PEG4-AR (4 h prior administration)", "result": "0.28 ± 0.09", "unit": "% I.D./g"},
      {"measurement": "Biodistribution: Bone", "setting": "PC3 xenografts; [5]", "result": "0.21 ± 0.09", "unit": "% I.D./g"},
      {"measurement": "Biodistribution: Heart", "setting": "PC3 xenografts; [5]", "result": "0.12 ± 0.04", "unit": "% I.D./g"},
      {"measurement": "Biodistribution: Intestine", "setting": "PC3 xenografts; [5]", "result": "0.12 ± 0.04", "unit": "% I.D./g"},
      {"measurement": "Biodistribution: Kidney", "setting": "PC3 xenografts; [5]", "result": "1.5 ± 0.3", "unit": "% I.D./g"},
      {"measurement": "Biodistribution: Liver", "setting": "PC3 xenografts; [5]", "result": "0.3 ± 0.1", "unit": "% I.D./g"},
      {"measurement": "Biodistribution: Lung", "setting": "PC3 xenografts; [5]", "result": "0.26 ± 0.06", "unit": "% I.D./g"},
      {"measurement": "Biodistribution: Muscle", "setting": "PC3 xenografts; [5]", "result": "0.15 ± 0.11", "unit": "% I.D./g"},
      {"measurement": "Biodistribution: Spleen", "setting": "PC3 xenografts; [5]", "result": "0.11 ± 0.04", "unit": "% I.D./g"},
      {"measurement": "Biodistribution: Stomach", "setting": "PC3 xenografts; [5]", "result": "0.09 ± 0.06", "unit": "% I.D./g"},
      {"measurement": "Biodistribution: Tumour", "setting": "PC3 xenografts; [5]", "result": "0.78 ± 0.54", "unit": "% I.D./g"},
      {"measurement": "Biodistribution: Kidney", "setting": "PC3 xenografts; [6]", "result": 1.5, "unit": "% I.D./g"},
      {"measurement": "Biodistribution: Tumour", "setting": "PC3 xenografts; [6]", "result": 0.78, "unit": "% I.D./g"},
      {"measurement": "tumor/blood ratio", "setting": "PC3 xenografts; [7]", "result": 2.8},
      {"measurement": "tumor/muscle ratio", "setting": "PC3 xenografts; [7]", "result": 5.2},
      {"measurement": "stability in PBS", "setting": "[2]; PBS, 24 h at 37°C", "result": "> 85", "unit": "%"},
      {"measurement": "level of degradation in CCM", "setting": "[2]; cell culture media, 37°C, after 24 h", "result": 70, "unit": "%"},
      {"measurement": "stability in CCM", "setting": "[2]; cell culture media, 37°C, first 4 h of incubation", "result": "very good stability"},
      {"measurement": "stability in HS", "setting": "[2]; human serum, 37°C, 24 h of incubation", "result": "almost completely degraded"},
      {"measurement": "compound degraded in HS", "setting": "[2]; human serum, 37°C, after 4 h of incubation", "result": 50, "unit": "%"},
      {"measurement": "stability in HS", "setting": "[2]; human serum, 37°C, up to 2 h of incubation", "result": "very good"},
      {"measurement": "log Po/w", "setting": "[3]", "result": "−1.60 ± 0.13"},
      {"measurement": "Biodistribution: Blood", "setting": "[4]; 15 min p.i.", "result": "2.5 ± 1.4", "unit": "% I.D./g"},
      {"measurement": "Biodistribution: Bone", "setting": "[4]; 15 min p.i.", "result": "1.0 ± 0.7", "unit": "% I.D./g"},
      {"measurement": "Biodistribution: Heart", "setting": "[4]; 15 min p.i.", "result": "0.8 ± 0.5", "unit": "% I.D./g"},
      {"measurement": "Biodistribution: Intestine", "setting": "[4]; 15 min p.i.", "result": "0.3 ± 0.2", "unit": "% I.D./g"},
      {"measurement": "Biodistribution: Kidney", "setting": "[4]; 15 min p.i.", "result": "5.2 ± 3.3", "unit": "% I.D./g"},
      {"measurement": "Biodistribution: Liver", "setting": "[4]; 15 min p.i.", "result": "2.3 ± 0.8", "unit": "% I.D./g"},
      {"measurement": "Biodistribution: Lung", "setting": "[4]; 15 min p.i.", "result": "1.8 ± 0.9", "unit": "% I.D./g"},
      {"measurement": "Biodistribution: Muscle", "setting": "[4]; 15 min p.i.", "result": "1.1 ± 0.9", "unit": "% I.D./g"},
      {"measurement": "Biodistribution: Pancreas", "setting": "[4]; 15 min p.i.", "result": "0.4 ± 0.2", "unit": "% I.D./g"},
      {"measurement": "Biodistribution: Spleen", "setting": "[4]; 15 min p.i.", "result": "0.8 ± 0.2", "unit": "% I.D./g"},
      {"measurement": "Biodistribution: Stomach", "setting": "[4]; 15 min p.i.", "result": "0.3 ± 0.2", "unit": "% I.D./g"},
      {"measurement": "Excretion", "setting": "[4]; 15 min p.i.", "result": "58.3 ± 25.3", "unit": "% I.D."},
      {"measurement": "Biodistribution: Blood", "setting": "[4]; 1 h p.i.", "result": "0.32 ± 0.07", "unit": "% I.D./g"},
      {"measurement": "Biodistribution: Bone", "setting": "[4]; 1 h p.i.", "result": "0.12 ± 0.03", "unit": "% I.D./g"},
      {"measurement": "Biodistribution: Heart", "setting": "[4]; 1 h p.i.", "result": "0.11 ± 0.02", "unit": "% I.D./g"},
      {"measurement": "Biodistribution: Intestine", "setting": "[4]; 1 h p.i.", "result": "0.05 ± 0.01", "unit": "% I.D./g"},
      {"measurement": "Biodistribution: Kidney", "setting": "[4]; 1 h p.i.", "result": "1.6 ± 0.3", "unit": "% I.D./g"},
      {"measurement": "Biodistribution: Liver", "setting": "[4]; 1 h p.i.", "result": "0.29 ± 0.09", "unit": "% I.D./g"},
      {"measurement": "Biodistribution: Lung", "setting": "[4]; 1 h p.i.", "result": "0.29 ± 0.03", "unit": "% I.D./g"},
      {"measurement": "Biodistribution: Muscle", "setting": "[4]; 1 h p.i.", "result": "0.08 ± 0.01", "unit": "% I.D./g"},
      {"measurement": "Biodistribution: Pancreas", "setting": "[4]; 1 h p.i.", "result": "0.06 ± 0.01", "unit": "% I.D./g"},
      {"measurement": "Biodistribution: Spleen", "setting": "[4]; 1 h p.i.", "result": "0.09 ± 0.01", "unit": "% I.D./g"},
      {"measurement": "Biodistribution: Stomach", "setting": "[4]; 1 h p.i.", "result": "0.09 ± 0.05", "unit": "% I.D./g"},
      {"measurement": "Excretion", "setting": "[4]; 1 h p.i.", "result": "91.8 ± 1.0", "unit": "% I.D."},
      {"measurement": "Excretion", "setting": "[4]; 1 h p.i., listed as [^111In]In-DOTA-Tz", "result": "above 90 % I.D."}
    ]}
  ]
}
